Data from patent US9663523B2, “BET protein-inhibiting 5-aryltriazoleazepines” (BAYER PHARMA AKTIENGESELLSCHAFT, priority 2012, dated 2017).

How the values were obtained:
MOLP-8 cells = test: Cell proliferation (alamarBlue), MOLP-8; type: cell-based; settings: Homo sapiens, multiple myeloma cell line, 120 hours incubation
[1] = molecular target: BRD4(1) (amino acids 44-168) (Homo sapiens (Human), UniProt O60885); test: BRD4 binding strength, TR-FRET (HTRF) assay of BRD4(1) / acetylated histone H4 peptide interaction; settings: inhibition of BRD4(1)/Ac-H4 peptide interaction
MDA-MB-231 cells = test: Cell proliferation (alamarBlue), MDA-MB-231; type: cell-based; settings: Homo sapiens, mammary carcinoma cell line, 96 hours incubation
Method: The ability of the compounds according to the invention to inhibit the proliferation of various cell lines was determined.
Cell viability was determined by means of the alamarBlue® reagent (Invitrogen). The cells were sown at different densities (MOLM-13, LAPC-4, MOLP-8 and MDA-MB-231: 4000 cells/well; B16F10: 400 cells/well) in 100 μl of growth medium on 96-well microtitre plates. After overnight incubation at 37° C., the fluorescence values (CI values) were determined. The plates were then treated with various substance dilutions and incubated at 37° C. for 96 hours (MOLM-13, MDA-MB-231 and B16F10 cells), 120 hours (MOLP-8 cells) or 168 hours (LAPC-4 cells). Subsequently, the fluorescence values were determined (CO values). For the data analysis, the CI values were subtracted from the CO values and the results were compared between cells which had been treated with various dilutions of the substance or only with buffer solution.
The compounds according to the invention were tested in the cell lines in Table 2, which represent the indications specified by way of example:
The indications corresponding to the different cell lines can be found in Table 2.

LAPC-4 cells = test: Cell proliferation (alamarBlue), LAPC-4; type: cell-based; settings: Homo sapiens, LAPC4; prostate carcinoma (androgen receptor-positive) cell line, 168 hours incubation
B16F10 cells = test: Cell proliferation (alamarBlue), B16F10; type: cell-based; settings: Mus musculus, B16-F10; melanoma cell line, 96 hours incubation
Method in brief: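 Mouse B16F10 cells were plated at 400 cells/well in 100 μl of growth medium in 96-well microtitre plates and incubated overnight at 37° C. Initial fluorescence (CI) was then read with alamarBlue® reagent. Cells were exposed to serial compound dilutions for 96 hours at 37° C before final fluorescence (CO) was read. CI was subtracted from CO and compared with buffer-treated controls.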

MOLM-13 cells = test: Cell proliferation (alamarBlue), MOLM-13; type: cell-based; settings: Homo sapiens, acute myeloid leukaemia cell line, 96 hours incubation
Method in brief: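 Cells seeded at 4000/well, fluorescence read after overnight at 37° C, then compound-treated for 96 h (MOLM-13, MDA-MB-231), 120 h (MOLP-8) or 168 h (LAPC-4). AlamarBlue fluorescence at start subtracted from end value and compared with buffer-treated cells.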

SMILES	IC50 (MOLP-8 cells)	IC50 [1]	IC50 (MDA-MB-231 cells)	IC50 (LAPC-4 cells)	IC50 (B16F10 cells)	IC50 (MOLM-13 cells)
Cc1nnc2n1-c1ccccc1C(c1ccc(Cl)cc1)=C[C@H]2CC(=O)N1CCC2(CCCC2)CC1 [Example 29, (−)-1-(8-azaspiro[4.5]dec-8-yl)-2-[(4R)-6-(4-chlorophenyl)-1-methyl-4H-[1,2,4]triazolo[4,3-a][1]benzazepin-4-yl]ethanone]	1670 nM	1800 nM	4730 nM	670 nM	2120 nM	2960 nM
Cc1noc(C[C@H]2C=C(c3ccc(Cl)cc3)c3ccccc3-n3c(C)nnc32)n1 [Example 35, (−)-6-[(4R)-4-chlorophenyl]-1-methyl-4-[(3-methyl-1,2,4-oxadiazol-5-yl)methyl]-4H-[1,2,4]triazolo[4,3-a][1]benzazepine]	130 nM	30 nM	210 nM	80 nM	150 nM	160 nM
